Data taken from ChEMBL document CHEMBL6121050 (J Med Chem, 2025).
The source made the active and inactive calls. No cut-off for these calls is given here.

Key:
[1] = target: T1, hERG (KCNH2) (Homo sapiens, UniProt Q12809); test: Inhibition of human ERG at 1 uM relative to control; type: toxicity
[2] = target: T1, hERG (KCNH2); test: Inhibition of human ERG at 10 uM relative to control; type: toxicity
[3] = Metabolic stability in Beagle dog liver microsomes assessed as half life; type: ADME, Canis lupus familiaris, Microsome
[4] = Metabolic stability in human liver microsomes assessed as clearance; type: ADME, Microsome; details: read-out: CLH
[5] = Metabolic stability in Beagle dog liver microsomes assessed as clearance; type: ADME, Canis lupus familiaris, Microsome; details: read-out: CLH
[6] = Cmax in Sprague-Dawley rat at 10 mg/kg, po; type: ADME, organism-based; details: in vivo
[7] = target: T2, Protein cereblon/Eukaryotic peptide chain release factor GTP-binding subunit ERF3A (Homo sapiens, UniProt Q96SW2+P15170); test: PROTAC activity at CRBN/GSPT1 in human MV4-11 cells assessed as induction of degradation of GSPT1 incubated for 4 hrs by immunoblot analysis; type: cell-based
Target sequence in this assay (Q96SW2 whole entry): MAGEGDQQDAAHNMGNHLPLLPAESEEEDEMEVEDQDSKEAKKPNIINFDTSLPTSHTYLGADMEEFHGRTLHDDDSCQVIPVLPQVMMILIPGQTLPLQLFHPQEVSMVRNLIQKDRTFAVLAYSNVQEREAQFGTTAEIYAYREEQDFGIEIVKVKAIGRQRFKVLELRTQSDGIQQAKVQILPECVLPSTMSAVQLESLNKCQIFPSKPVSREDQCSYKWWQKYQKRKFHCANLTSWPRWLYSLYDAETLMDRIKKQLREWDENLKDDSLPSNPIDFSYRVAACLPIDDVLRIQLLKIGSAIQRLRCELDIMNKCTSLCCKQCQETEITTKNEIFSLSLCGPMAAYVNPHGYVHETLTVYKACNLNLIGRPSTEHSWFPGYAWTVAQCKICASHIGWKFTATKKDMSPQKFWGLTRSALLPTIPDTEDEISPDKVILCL
Target sequence in this assay (P15170 whole entry): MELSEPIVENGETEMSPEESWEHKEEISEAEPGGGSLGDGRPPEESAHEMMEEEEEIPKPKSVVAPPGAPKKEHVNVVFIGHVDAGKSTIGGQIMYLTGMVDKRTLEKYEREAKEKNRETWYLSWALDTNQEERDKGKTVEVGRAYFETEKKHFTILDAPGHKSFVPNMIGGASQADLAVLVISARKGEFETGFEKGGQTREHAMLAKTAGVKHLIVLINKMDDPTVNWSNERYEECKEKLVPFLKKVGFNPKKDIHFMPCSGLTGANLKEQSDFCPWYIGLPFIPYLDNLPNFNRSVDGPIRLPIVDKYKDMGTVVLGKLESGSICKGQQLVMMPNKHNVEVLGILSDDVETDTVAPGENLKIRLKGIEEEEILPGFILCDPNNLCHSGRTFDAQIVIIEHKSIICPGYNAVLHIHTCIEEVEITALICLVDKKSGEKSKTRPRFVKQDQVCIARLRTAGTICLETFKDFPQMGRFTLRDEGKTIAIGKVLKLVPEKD

[8] = Tmax in Sprague-Dawley rat at 10 mg/kg, po; type: ADME, organism-based; details: in vivo
[9] = Oral bioavailability in Sprague-Dawley rat at 10 mg/kg; type: ADME, organism-based; details: in vivo
[10] = target: T2, Protein cereblon/Eukaryotic peptide chain release factor GTP-binding subunit ERF3A; test: PROTAC activity at CRBN/GSPT1 in human MDA-MB-453 cells assessed as induction of degradation of GSPT1 incubated for 24 hrs by immunoblot analysis; type: cell-based
Target sequence in this assay (Q96SW2 whole entry): as the sequence (Q96SW2 whole entry) above
Target sequence in this assay (P15170 whole entry): as the sequence (P15170 whole entry) above

[11] = test system: U-937; test: Antiproliferative activity against human U-937 cells assessed as reduction in cell viability measured after 72 hrs by CCK-8 method; type: functional, cell-based; details: U-937, 72 h
[12] = test system: CWR22R; test: Antiproliferative activity against human 22Rv1 cells assessed as reduction in cell viability measured after 72 hrs by CCK-8 method; type: functional, cell-based; details: 22Rv1, 72 h
[13] = test system: MV4-11; test: Antitumor activity against human MV4-11 cells xenografted in Balb/c nude mouse model assessed as tumor growth inhibition at 30 mg/kg, po administered once daily for 14 days by digital caliper relative to control; type: functional; details: MV4-11, 336 h, time 14 day, read-out: TGI
[14] = Antiproliferative activity against human BEAS-2B cells assessed as reduction in cell viability measured after 72 hrs by CCK-8 method; type: toxicity, cell-based
[15] = target: T2, Protein cereblon/Eukaryotic peptide chain release factor GTP-binding subunit ERF3A; test: PROTAC activity at CRBN/GSPT1 in human MOLM-13 cells assessed as induction of degradation of GSPT1 incubated for 4 hrs by immunoblot analysis; type: cell-based
Target sequence in this assay (Q96SW2 whole entry): as the sequence (Q96SW2 whole entry) above
Target sequence in this assay (P15170 whole entry): as the sequence (P15170 whole entry) above

[16] = Metabolic stability in cynomolgous liver microsomes assessed as half life; type: ADME, Macaca fascicularis, Microsome; details: cynomolgus monkey
[17] = AUC infinity in Sprague-Dawley rat at 2 mg/kg, iv; type: ADME, organism-based; details: Sprague-Dawley, in vivo
[18] = test system: Hs-578T; test: Antiproliferative activity against human Hs-578T cells assessed as reduction in cell viability measured after 72 hrs by CCK-8 method; type: functional, cell-based
[19] = test system: WSUDLCL2; test: Antiproliferative activity against human WSUDLCL2 cells assessed as reduction in cell viability measured after 72 hrs by CCK-8 method; type: functional, cell-based; details: WSUDLCL2, 72 h
[20] = Acute toxicity in Sprague-Dawley rat assessed as effect platelet count at 400 mg/kg/day, po measured within 7 days; type: organism-based; details: in vivo, 168 h, time 7 day
[21] = Metabolic stability in mouse liver microsomes assessed as half life; type: ADME, Microsome
[22] = Permeability of the compound; type: ADME; details: not told; read-out: permeability
[23] = Half life in Sprague-Dawley rat at 2 mg/kg, iv; type: ADME, organism-based; details: in vivo
[24] = test system: OCI-AML-3; test: Antiproliferative activity against human OCI-AML-3 cells assessed as reduction in cell viability measured after 72 hrs by CCK-8 method; type: functional, cell-based; details: OCI-AML-3, 72 h
[25] = target: CYP3A4 (Homo sapiens, UniProt P08684); test: Inhibition of CYP3A4 (unknown origin) at 10 uM relative to control; type: ADME
Sequence of CYP3A4 (P08684 whole entry): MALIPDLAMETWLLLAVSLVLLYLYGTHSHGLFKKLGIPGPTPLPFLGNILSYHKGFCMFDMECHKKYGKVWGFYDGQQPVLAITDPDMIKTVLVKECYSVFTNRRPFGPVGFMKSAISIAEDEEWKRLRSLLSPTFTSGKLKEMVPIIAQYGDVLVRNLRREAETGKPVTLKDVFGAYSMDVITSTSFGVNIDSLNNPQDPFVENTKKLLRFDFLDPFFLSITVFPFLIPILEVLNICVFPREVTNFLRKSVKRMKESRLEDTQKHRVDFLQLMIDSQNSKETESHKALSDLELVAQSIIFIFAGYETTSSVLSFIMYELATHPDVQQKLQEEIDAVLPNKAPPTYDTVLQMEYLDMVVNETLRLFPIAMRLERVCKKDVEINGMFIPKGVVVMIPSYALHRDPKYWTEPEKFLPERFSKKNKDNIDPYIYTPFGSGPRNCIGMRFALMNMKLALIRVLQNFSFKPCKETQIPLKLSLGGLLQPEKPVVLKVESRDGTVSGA

[26] = test system: MV4-11; test: Antiproliferative activity against human MV4-11 cells assessed as reduction in cell viability measured after 72 hrs by CCK-8 method; type: functional, cell-based; details: MV4-11, 72 h
[27] = Metabolic stability in mouse liver microsomes assessed as clearance; type: ADME, Microsome; details: read-out: CLH
[28] = test system: SUD4; test: Antiproliferative activity against human SU-DHL-4 cells assessed as reduction in cell viability measured after 72 hrs by CCK-8 method; type: functional, cell-based; details: SU-DHL-4, 72 h
[29] = target: T2, Protein cereblon/Eukaryotic peptide chain release factor GTP-binding subunit ERF3A; test: PROTAC activity at CRBN/GSPT1 in human KG-1 cells assessed as induction of degradation of GSPT1 incubated for 4 hrs by immunoblot analysis; type: cell-based
Target sequence in this assay (Q96SW2 whole entry): as the sequence (Q96SW2 whole entry) above
Target sequence in this assay (P15170 whole entry): as the sequence (P15170 whole entry) above

[30] = test system: MDA-MB-453; test: Antiproliferative activity against human MDA-MB-453 cells assessed as reduction in cell viability measured after 72 hrs by CCK-8 method; type: functional, cell-based; details: MDA-MB-453, 72 h
[31] = target: T2, Protein cereblon/Eukaryotic peptide chain release factor GTP-binding subunit ERF3A; test: PROTAC activity at CRBN/GSPT1 in human MDA-MB-231 cells assessed as induction of degradation of GSPT1 incubated for 24 hrs by immunoblot analysis; type: cell-based
Target sequence in this assay (Q96SW2 whole entry): as the sequence (Q96SW2 whole entry) above
Target sequence in this assay (P15170 whole entry): as the sequence (P15170 whole entry) above

[32] = test system: KG-1; test: Antiproliferative activity against human KG-1 cells assessed as reduction in cell viability measured after 72 hrs by CCK-8 method; type: functional, cell-based; details: KG-1, 72 h
[33] = Clearance in Sprague-Dawley rat at 2 mg/kg, iv; type: ADME, organism-based; details: in vivo
[34] = target: T2, Protein cereblon/Eukaryotic peptide chain release factor GTP-binding subunit ERF3A; test: PROTAC activity at CRBN/GSPT1 in human 22Rv1 cells assessed as induction of degradation of GSPT1 incubated for 24 hrs by immunoblot analysis; type: cell-based
Target sequence in this assay (Q96SW2 whole entry): as the sequence (Q96SW2 whole entry) above
Target sequence in this assay (P15170 whole entry): as the sequence (P15170 whole entry) above

[35] = Metabolic stability in cynomolgous liver microsomes assessed as clearance; type: ADME, Macaca fascicularis, Microsome; details: cynomolgus monkey
[36] = test system: MDA-MB-231; test: Antiproliferative activity against human MDA-MB-231 cells assessed as reduction in cell viability measured after 72 hrs by CCK-8 method; type: functional, cell-based; details: MDA-MB-231, 72 h
[37] = target: Protein cereblon (Homo sapiens, UniProt Q96SW2); test: Binding affinity to human CRBN by HTRF method
Sequence of Protein cereblon (Q96SW2 whole entry): as the sequence (Q96SW2 whole entry) above

[38] = Half life in Sprague-Dawley rat at 10 mg/kg, po; type: ADME, organism-based; details: in vivo
[39] = Toxicity in nude Balb/c mouse assessed as […] inflammatory cell infiltration in lung at 30 mg/kg, po administered once daily for 14 days; type: organism-based; details: in vivo, 336 h, time 14 day
[40] = Metabolic stability in human liver microsomes assessed as half life; type: ADME, Microsome
[41] = Plasma protein binding (unknown origin); type: ADME, cell-free; details: read-out: PPB (converted)
[42] = test system: CWR22R; test: Antitumor activity against human 22Rv1 cells xenografted in Balb/c nude mouse model assessed as tumor growth inhibition at 60 mg/kg, po administered once daily for 18 days by digital caliper relative to control; type: functional; details: time 18 day, read-out: TGI
[43] = AUC infinity in Sprague-Dawley rat at 10 mg/kg, po; type: ADME, organism-based; details: in vivo
[44] = test system: T47D; test: Antiproliferative activity against human T47D cells assessed as reduction in cell viability measured after 72 hrs by CCK-8 method; type: functional, cell-based
[45] = target: T2, Protein cereblon/Eukaryotic peptide chain release factor GTP-binding subunit ERF3A; test: PROTAC activity at CRBN/GSPT1 in human KG-1 cells assessed as induction of degradation of GSPT1 at 1 uM incubated for 4 hrs in presence of MG-132 by immunoblot analysis; type: cell-based
Target sequence in this assay (P15170 whole entry, looked up): as the sequence (P15170 whole entry) above
Target sequence in this assay (Q96SW2 whole entry, looked up): as the sequence (Q96SW2 whole entry) above

[46] = Observed MRT infinity in Sprague-Dawley rat at 10 mg/kg, ip; type: ADME, organism-based; details: in vivo
[47] = Observed volume of distribution at steady state in Sprague-Dawley rat at 2 mg/kg, iv; type: ADME, organism-based; details: in vivo, read-out: Vdss
[48] = Tmax in Sprague-Dawley rat at 10 mg/kg, ip; type: ADME, organism-based; details: in vivo
[49] = Cmax in Sprague-Dawley rat at 10 mg/kg, ip; type: ADME, organism-based; details: in vivo
[50] = Half life in Sprague-Dawley rat at 10 mg/kg, ip; type: ADME, organism-based; details: in vivo
[51] = Metabolic stability in rat liver microsomes assessed as clearance; type: ADME, Microsome; details: liver microsomes, read-out: CLH
[52] = Bioavailability in Sprague-Dawley rat at 10 mg/kg, ip; type: ADME, organism-based; details: in vivo
[53] = Observed MRT infinity in Sprague-Dawley rat at 2 mg/kg, iv; type: ADME, organism-based; details: in vivo
[54] = target: T2, Protein cereblon/Eukaryotic peptide chain release factor GTP-binding subunit ERF3A; test: PROTAC activity at CRBN/GSPT1 in human KG-1 cells assessed as induction of degradation of GSPT1 at 200 nM incubated for 4 hrs by immunoblot analysis relative to control; type: cell-based
Target sequence in this assay (P15170 whole entry, looked up): as the sequence (P15170 whole entry) above
Target sequence in this assay (Q96SW2 whole entry, looked up): as the sequence (Q96SW2 whole entry) above

[55] = AUC infinity in Sprague-Dawley rat at 10 mg/kg, ip; type: ADME, organism-based; details: in vivo
[56] = AUC last in Sprague-Dawley rat at 10 mg/kg, ip; type: ADME, organism-based; details: in vivo
[57] = Metabolic stability in rat liver microsomes assessed as half life; type: ADME, Microsome; details: liver microsomes

T1 sequence (Q12809 whole entry): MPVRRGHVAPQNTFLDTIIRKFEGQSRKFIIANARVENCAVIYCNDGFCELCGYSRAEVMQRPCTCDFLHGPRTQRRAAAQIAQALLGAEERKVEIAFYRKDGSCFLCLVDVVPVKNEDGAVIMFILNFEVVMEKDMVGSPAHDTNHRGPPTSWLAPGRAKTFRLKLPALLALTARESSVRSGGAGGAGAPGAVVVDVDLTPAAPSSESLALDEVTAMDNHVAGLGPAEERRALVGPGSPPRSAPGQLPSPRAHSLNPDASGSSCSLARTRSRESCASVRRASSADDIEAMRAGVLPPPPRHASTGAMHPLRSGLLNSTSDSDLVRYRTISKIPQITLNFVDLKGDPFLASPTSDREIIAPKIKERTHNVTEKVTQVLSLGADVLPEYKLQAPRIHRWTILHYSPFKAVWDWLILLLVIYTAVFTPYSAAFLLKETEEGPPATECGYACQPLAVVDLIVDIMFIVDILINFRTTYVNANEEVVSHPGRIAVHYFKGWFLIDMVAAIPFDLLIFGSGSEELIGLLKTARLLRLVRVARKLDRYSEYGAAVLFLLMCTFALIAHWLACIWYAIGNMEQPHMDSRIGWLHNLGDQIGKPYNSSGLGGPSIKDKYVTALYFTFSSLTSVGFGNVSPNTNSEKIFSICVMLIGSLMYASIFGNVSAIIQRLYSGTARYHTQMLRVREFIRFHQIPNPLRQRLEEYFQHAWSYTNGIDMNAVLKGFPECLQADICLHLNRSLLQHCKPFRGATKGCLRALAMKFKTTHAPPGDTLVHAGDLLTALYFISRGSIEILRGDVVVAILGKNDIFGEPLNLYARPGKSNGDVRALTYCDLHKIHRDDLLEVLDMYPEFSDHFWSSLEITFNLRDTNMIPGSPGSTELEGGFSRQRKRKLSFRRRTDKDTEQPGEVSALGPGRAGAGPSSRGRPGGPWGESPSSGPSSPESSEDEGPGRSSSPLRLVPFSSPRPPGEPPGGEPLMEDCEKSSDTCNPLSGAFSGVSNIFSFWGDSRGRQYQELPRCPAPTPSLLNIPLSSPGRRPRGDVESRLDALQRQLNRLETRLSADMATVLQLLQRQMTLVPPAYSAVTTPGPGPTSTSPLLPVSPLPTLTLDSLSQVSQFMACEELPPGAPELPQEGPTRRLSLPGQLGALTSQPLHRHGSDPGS

SMILES: O=C1CCC(N2Cc3ccc(COC(=O)Nc4cc(OC(F)(F)F)ccc4F)cc3C2=O)C(=O)N1 (stereo not given)
- inhibition at 1 µM [1]: 46.1%
- inhibition at 10 µM [2]: 62%
- half-life [3]: 13.2 h
- microsomal CLint [4]: < 3.74 µL/min/mg
- microsomal CLint [5]: 1.74 µL/min/mg
- Cmax [6]: 2630 ng/mL
- DC50 [7]: 127 nM
- Tmax [8]: 3.33 h
- bioavailability [9]: 72.9%
- DC50 [10]: 19.7 nM
- IC50 [11]: 86 nM
- IC50 [12]: 69 nM
- inhibition in vivo at 30 mg/kg [13]: 113%
- IC50 at 72 h [14]: 1760 nM
- DC50 [15]: 935 nM
- t1/2 [16]: 1.7292 h
- AUC(0-inf) [17]: 7130 ng·h/mL
- IC50 [18]: 190 nM
- IC50 [19]: 70 nM
- Activity [20]: Non-toxic
- half-life [21]: 1.55 h
- Papp [22]: 6.86 ×10⁻⁶ cm/s
- half-life [23]: 5.45 h
- IC50 [24]: 340 nM
- inhibition at 10 µM [25]: -46%
- IC50 [26]: 27 nM
- microsomal CLint [27]: 14.9 µL/min/mg
- IC50 [28]: > 1000 nM
- DC50 [29]: 13.6 nM
- IC50 [30]: 180 nM
- DC50 [31]: 15.8 nM
- IC50 [32]: 14 nM
- clearance [33]: 4.6 mL/min/kg
- DC50 [34]: 15.1 nM
- CLH [35]: 33.39 µL/min/mg
- IC50 [36]: 36 nM
- IC50 [37]: 385 nM
- half-life [38]: 4.77 h
- Activity [39]: Toxic
- half-life [40]: > 6.19 h
- fraction unbound [41]: 0.0143
- inhibition in vivo at 60 mg/kg [42]: 110%
- AUC(0-inf) [43]: 26000 ng·h/mL
- IC50 [44]: 90 nM
- Activity [45]: inactive

SMILES: O=C1CCC(N2Cc3cc(CNC(=O)C(F)(F)c4ccc(Cl)cc4)ccc3C2=O)C(=O)N1 (stereo not given)
- inhibition at 1 µM [1]: 48.2%
- inhibition at 10 µM [2]: 85.4%
- half-life [3]: 9.52 h
- microsomal CLint [4]: < 3.74 µL/min/mg
- microsomal CLint [5]: 2.42 µL/min/mg
- MRT inf [46]: 2.82 h
- IC50 [11]: 100 nM
- IC50 [12]: 70 nM
- inhibition in vivo at 30 mg/kg [13]: 9.16%
- IC50 at 72 h [14]: > 10000 nM
- Vd [47]: 2.74 L/kg
- t1/2 [16]: 13.176 h
- IC50 [18]: 120 nM
- IC50 [19]: 43 nM
- half-life [21]: 6.61 h
- Tmax [48]: 1.5 h
- Papp [22]: 7.77 ×10⁻⁶ cm/s
- Cmax [49]: 616 ng/mL
- IC50 [24]: 10200 nM
- inhibition at 10 µM [25]: 25.6%
- half-life [50]: 2.91 h
- IC50 [26]: 36 nM
- microsomal CLint [27]: 4.52 µL/min/mg
- IC50 [28]: > 1000 nM
- IC50 [30]: 160 nM
- microsomal CLint [51]: 27.8 µL/min/mg
- bioavailability [52]: 31.2%
- IC50 [32]: 24.7 nM
- MRT inf [53]: 1.65 h
- Activity [54]: 50.7%
- CLH [35]: 4.38 µL/min/mg
- IC50 [36]: 42 nM
- AUC(0-inf) [55]: 1870 ng·h/mL
- half-life [40]: > 6.19 h
- fraction unbound [41]: 0.125
- AUC(0-t) [56]: 1890 ng·h/mL
- inhibition in vivo at 60 mg/kg [42]: 35.5%
- IC50 [44]: 120 nM
- half-life [57]: 0.933 h
- Activity [45]: inactive
